Reference: patent publication US20120115782A1, “COMPOSITIONS AND METHODS FOR TREATING OR INHIBITING LIVER INJURY” (Yale University, priority 2009, published 2012)

Columns and labels:
[1] = test system: APAP induced hepatotoxicity in wild-type mice; test: Acetaminophen (APAP) induced hepatotoxicity in mice: survival, serum ALT, liver histology; assay type: in vivo, mouse (C57BL/6)
Protocol: Animals. C57BL/6 mice were purchased from commercial sources. NALP3 −/−, IL-18 −/− ASC −/−, IPAF −/− and TLR9 −/− mice were backcrossed nine generations onto the C57BL/6 background. Caspase 1 −/− mice were backcrossed 5-6 generations onto the C57BL/6 background. These mice have been described previously (39, 40). IL-1β was neutralized in by using the anti-IL-1β antibody from clone B122 (a gift of R. Schreiber, Washington University) at a dose of 0.2 mg/mouse iv twice a day for a total of 48 hours after giving APAP. Control mice received Armenian hamster isotype control antibody. For survival experiments animals were euthanized when they became moribund using criteria of lack of response to stimuli or lack of righting reflex. Animal protocols were approved by the Yale University animal care and use committee. [include references for IPAF−/− (M. Lara-Tejero et al. JEM 2006) and IL-18−/−. Need to add TLR9−/− and TLR3−/−] Acetaminophen induced hepatotoxicity. APAP (Sigma, Mo.) solution was made fresh for each experiment in PBS at 20 mg/ml and heated in a water bath to 55° C. to dissolve. APAP was dosed at 500 mg/kg and injected I.P after 15 hrs of starvation. Animals were euthanized by ketamine/xylazine injection at 12 hours for collection of serum, isolation of liver lymphocytes or collection of liver tissue for histology, or they were observed every four hours for 72 hours until they reached criteria for euthanasia (lack of response to stimuli or lack of righting reflex).
Aspirin/clopidogrel/SC-560. Aspirin (Sigma, Mo.) was made fresh for each experiment. For dosing prior to APAP it was dissolved in single deionized water at 60 mg/l and heated to 42° C. with rapid stirring to dissolve, then rapidly placed in an ice water bath to cool. Aspirin in water was given to the mice 60-72 hours prior to APAP injection. Assuming water consumption of 3-5 ml per day this dose would be equivalent to a 300-500 mg dose in an 80 kg adult human. For co-administration of APAP and aspirin, aspirin was gavaged at a dose of 6 mg/kg in a volume of 100 ul of water immediately after ip injection of APAP. Clopidogrel (Gilead Pharmaceuticals, CA.) was dissolved in PBS at 6 mg/ml and administered by gavage of 100 ul, 30 mg/kg, every 24 hours beginning 48 hours prior and ending 24 hours after APAP injection. Cox-1 inhibitor (SC-560). SC-560 (Cayman chemical, MI) was dissolved at 50 mg/ml in DMSO and further dissolved in PBS in order to gavage a dose of 5 mg/kg in 100 ul. It was administered twice per day beginning 60 hours prior to Tylenol and continued for 48 hours after APAP injection as previously established (41).
Uric Acid Peritonitis. Peritonitis was induced with uric acid crystals as previously described by injecting 3 mg of MSU intraperitoneally per mouse (27). Three hours after injection peritoneal lavage was performed on mice euthanized by isoflurane inhalation. Neutrophil infiltration was evaluated by flow cytometry. The percent of Gr-1 (BD Pharmingen, CA) positive cells was multiplied by the total cell counts. Liver sinusoidal endothelial cell (LSEC) isolation. After in-situ pronase digestion the non-parenchymal cell suspension is centrifuged for 5 min at 100 g to remove most of the parenchymal cells. This process is repeated until no pellet is observed. The supernatant enriched in LSEC is centrifuged for 10 min at 350 g. The pellet is resuspended in PBS and centrifuged for 10 min at 350 g. The cells are resuspended in. PBS and layered (3.3 ml) on the top of two-step percoll gradient (put the 5 ml of 50% percoll at the bottom and put the 6.6 ml of 25% percoll at the top). The gradients are centrifuged at 900 g for 20 min and the intermediate layer included LSEC is collected and cultured in the media (EGM™-2MV—Microvascular Endothelial Cell Medium-2, CAMBREX, Charles City, Iowa). ODN2088 and IRS 954 injection.

[2] = test system: TNF-α; test: Q-PCR of whole liver after APAP: TNF-α; assay type: in vivo, mouse; details: aspirin treatment
Protocol: (§1) Uric Acid Peritonitis. Peritonitis was induced with uric acid crystals as previously described by injecting 3 mg of MSU intraperitoneally per mouse (27). Three hours after injection peritoneal lavage was performed on mice euthanized by isoflurane inhalation. Neutrophil infiltration was evaluated by flow cytometry. The percent of Gr-1 (BD Pharmingen, CA) positive cells was multiplied by the total cell counts. Liver sinusoidal endothelial cell (LSEC) isolation. After in-situ pronase digestion the non-parenchymal cell suspension is centrifuged for 5 min at 100 g to remove most of the parenchymal cells. This process is repeated until no pellet is observed. […] TLR9 antagonist (ODN2088, 50 microg×2) or PBS, were injected ip into wild-type mice immediately after and at 6 hours after APAP injection and total mouse liver was obtained 12 hours after APAP injection for quantitative Q-PCR for IL-1β. […] Quantitative Real-time PCR. […] Expression of glyceraldehyde 3-phosphate dehydrogenase was used to standardize the samples, and the results were expressed as a ratio compared with untreated HSCs. Quantitative Real-time PCR for mRNA expression of IL-18, IL-1β, TNF-α and IFN-γ. […] Quantitative real-time PCR (Q-PCR) was performed for IL-18 and IL-1β using commercial primer-probe sets (Applied Biosystems, CA) and the Applied Biosystem 7500 real time PCR system. […]

[3] = test system: THP1 cells (pro-IL-1β transcript); test: THP1 cells stimulated with LPS, real-time PCR for pro-IL-1β; assay type: cell-based, human; details: overnight with aspirin (1.5 mM, 0.15 mM), then LPS 10 μg/ml for 8 hours
Protocol: as §1

[4] = test system: IL-1β; test: ELISA for serum IL-1β after APAP; assay type: in vivo, mouse; details: ASA in drinking water
[5] = test system: IFN-γ; test: Q-PCR of whole liver after APAP: IFN-γ; assay type: in vivo, mouse; details: aspirin treatment
Protocol: as §1

[6] = test system: APAP toxicity in mice and rats; details: aspirin 200-600 mg/kg; cited from earlier work
[7] = test system: pro-IL-18 transcript; test: Q-PCR of whole liver 12 hours after APAP: pro-IL-18; assay type: in vivo, mouse; details: aspirin pre-treatment in drinking water
Protocol: as §1

[8] = test system: NALP3 inflammasome; test: Uric acid (MSU crystal) peritonitis, model of NALP3 inflammasome activation; assay type: in vivo; details: low dose aspirin (60 mg/l) in drinking water three days prior; lavage 3 hours after MSU 3 mg/mouse ip
Protocol: as §1

[9] = test system: pro-IL-1β transcript; test: Q-PCR of whole liver 12 hours after APAP: pro-IL-1β; assay type: in vivo, mouse; details: aspirin pre-treatment in drinking water
Protocol: as §1

COc1ccc(-n2nc(C(F)(F)F)cc2-c2ccc(Cl)cc2)cc1 [SC-560]
protection against APAP toxicity (survival) ([1]; SC-560 gavage 5 mg/kg twice daily, from 60 hours prior to 48 hours after APAP): did not protect

CC(=O)Oc1ccccc1C(=O)O [aspirin, acetylsalicylic acid]
expression of TNF-α, whole liver after APAP [2]: reduced
up-regulation of pro-IL-1β transcript by LPS in THP1 cells [3]: reduced
serum IL-1β levels induced by APAP [4]: significant reduction
expression of IFN-γ, whole liver after APAP [5]: reduced
liver injury from APAP [6]: reduce liver injury
survival from APAP [6]: not improve survival
increase in pro-IL-18 message by APAP, whole liver [7]: reduced to normal levels
neutrophil exudates (Gr-1 positive) in MSU peritonitis [8]: eightfold reduction
increase in pro-IL-1β message by APAP, whole liver [9]: reduced to normal levels
survival after APAP ([1]; aspirin 60 mg/l in drinking water for 3 days before APAP 500 mg/kg ip, 72 hours): markedly improved survival
survival, aspirin given concordantly with APAP ([1]; aspirin gavaged 6 mg/kg immediately after ip APAP): 43%+/−11%
liver histology (H&E) 12 hours after APAP ([1]; aspirin in drinking water three days prior to APAP): significant reduction in APAP induced liver injury and hemorrhage
serum ALT 12 hrs after APAP ([1]; pre-treatment with aspirin in drinking water): significantly lower serum ALT

COC(=O)[C@H](c1ccccc1Cl)N1CCc2sccc2C1 [clopidogrel]
protection against APAP toxicity (survival) ([1]; clopidogrel gavage 30 mg/kg every 24 hrs, from 48 hours prior to 24 hours after APAP): did not protect
